Test results as given in ChEMBL document CHEMBL3351387, “Bioisosteric replacement of an acylureido moiety attached to an indolin-2-one scaffold with a malonamido or a 2/4-pyridinoylamido moiety produces a selectively potent Aurora-B inhibitor” (Eur J Med Chem, 2014).

Experiments:
A549 [1] = assay: Cytotoxicity against human A549 cells by SRB assay; type: cell-based
HepG2 = assay: Cytotoxicity against human HepG2 cells by SRB assay; type: cell-based
Cytochrome P450 2C9 = Cytochrome P450 2C9 (Homo sapiens, UniProt P11712); assay: Inhibition of CYP2C9 (unknown origin) using Vivid OOMR substrate; type: ADME
Chain of Cytochrome P450 2C9 (P11712 whole entry): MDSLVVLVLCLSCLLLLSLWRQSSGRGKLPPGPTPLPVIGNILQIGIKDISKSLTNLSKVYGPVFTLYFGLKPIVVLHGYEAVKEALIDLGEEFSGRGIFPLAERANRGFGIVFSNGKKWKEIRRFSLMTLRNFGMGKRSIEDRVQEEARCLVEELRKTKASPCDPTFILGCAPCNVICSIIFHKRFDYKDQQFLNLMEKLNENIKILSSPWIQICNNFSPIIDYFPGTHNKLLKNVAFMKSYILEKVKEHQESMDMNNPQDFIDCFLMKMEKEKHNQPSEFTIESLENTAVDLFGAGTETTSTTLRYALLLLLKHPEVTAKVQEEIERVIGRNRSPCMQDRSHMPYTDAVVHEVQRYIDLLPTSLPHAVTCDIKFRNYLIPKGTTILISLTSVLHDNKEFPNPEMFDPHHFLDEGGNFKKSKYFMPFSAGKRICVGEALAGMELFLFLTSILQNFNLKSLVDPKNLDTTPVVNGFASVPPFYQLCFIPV

Cytochrome P450 2C19 = Cytochrome P450 2C19 (Homo sapiens, UniProt P33261); assay: Inhibition of CYP2C19 (unknown origin) using 3-Cyano-7-ethoxycoumarin substrate; type: ADME
Chain of Cytochrome P450 2C19 (P33261 whole entry): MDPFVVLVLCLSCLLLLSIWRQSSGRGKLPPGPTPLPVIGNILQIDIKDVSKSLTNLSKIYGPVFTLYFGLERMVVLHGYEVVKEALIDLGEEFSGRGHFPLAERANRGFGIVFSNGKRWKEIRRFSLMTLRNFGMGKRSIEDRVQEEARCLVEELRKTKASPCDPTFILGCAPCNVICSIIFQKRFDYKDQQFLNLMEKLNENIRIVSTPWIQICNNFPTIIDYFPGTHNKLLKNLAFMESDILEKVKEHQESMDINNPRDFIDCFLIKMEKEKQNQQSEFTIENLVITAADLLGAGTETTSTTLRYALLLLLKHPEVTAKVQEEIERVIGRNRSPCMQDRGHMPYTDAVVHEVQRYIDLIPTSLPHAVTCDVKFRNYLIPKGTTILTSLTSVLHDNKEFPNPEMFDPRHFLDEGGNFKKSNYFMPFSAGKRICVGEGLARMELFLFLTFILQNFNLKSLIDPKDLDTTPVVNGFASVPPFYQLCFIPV

Cytochrome P450 3A4 = Cytochrome P450 3A4 (Homo sapiens, UniProt P08684); assay: Inhibition of CYP3A4 (unknown origin) using Vivid OOMR substrate; type: ADME
Chain of Cytochrome P450 3A4 (P08684 whole entry): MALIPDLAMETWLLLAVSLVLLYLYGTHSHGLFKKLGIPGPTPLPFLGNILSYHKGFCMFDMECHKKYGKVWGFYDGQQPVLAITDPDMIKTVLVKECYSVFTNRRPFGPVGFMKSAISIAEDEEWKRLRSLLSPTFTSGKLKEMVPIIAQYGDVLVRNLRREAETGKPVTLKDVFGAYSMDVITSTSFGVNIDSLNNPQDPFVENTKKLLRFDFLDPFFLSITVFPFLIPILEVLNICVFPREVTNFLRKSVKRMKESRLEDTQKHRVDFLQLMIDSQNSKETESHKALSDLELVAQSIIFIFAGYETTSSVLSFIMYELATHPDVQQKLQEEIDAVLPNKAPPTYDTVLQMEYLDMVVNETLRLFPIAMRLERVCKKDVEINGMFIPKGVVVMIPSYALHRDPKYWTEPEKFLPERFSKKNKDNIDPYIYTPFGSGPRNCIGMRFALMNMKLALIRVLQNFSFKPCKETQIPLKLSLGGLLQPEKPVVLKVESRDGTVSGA

[2] = Half life in rat plasma at 2 mg/kg, iv after 24 hrs by LC-ESI-MS/MS method; type: ADME, organism-based; parameters: dose 2 mg/kg, route intravenous
[3] = Clearance in rat at 2 mg/kg, iv after 24 hrs by LC-ESI-MS/MS method; type: ADME, organism-based; parameters: dose 2 mg/kg, route intravenous; conditions: in vivo
[4] = Volume of distribution at steady state in rat at 2 mg/kg, iv after 24 hrs by LC-ESI-MS/MS method; type: ADME, organism-based; parameters: dose 2 mg/kg, route intravenous; conditions: in vivo, read-out: Vdss
Rattus norvegicus = assay: AUC (0 to 24 hrs) in rat plasma at 2 mg/kg, iv after 24 hrs by LC-ESI-MS/MS method; type: ADME, organism-based; parameters: time < 24 hr, dose 2 mg/kg, route intravenous; conditions: in vivo
[5] = Antitumor activity against human HuH7 cells xenografted in po dosed SCID mouse assessed as inhibition of tumor growth at 2.5 mg/kg, iv qd for 14 days measured on day 9; type: functional; conditions: Huh-7
[6] = Antitumor activity against human HuH7 cells xenografted in po dosed SCID mouse assessed as inhibition of tumor growth at 2.5 mg/kg, iv qd measured on day 14; type: functional; conditions: Huh-7, 336 h
Vero = assay: Cytotoxicity against african green monkey Vero cells; type: cell-based; conditions: chlorocebus sabaeus
[7] = Plasma concentration rat at 2 mg/kg, iv after 5 mins by LC-ESI-MS/MS method; type: ADME, organism-based; parameters: dose 2 mg/kg, route intravenous
[8] = Plasma concentration rat at 2 mg/kg, iv after 24 hrs by LC-ESI-MS/MS method; type: ADME, organism-based; parameters: dose 2 mg/kg, route intravenous
A549 [9] = assay: Anti-invasive activity against human A549 cells assessed as inhibition of cell invasion by transwell invasion assay
A549 [10] = assay: Antimigratory activity against human A549 cells assessed as inhibition of cell migration after 8 to 16 hrs by scratch wound model assay
[11] = Antitumor activity against human HuH7 cells xenografted in iv dosed SCID mouse assessed as inhibition of tumor growth at 5 mg/kg, iv qd for 14 days measured on day 9; conditions: Huh-7, iv

SMILES: O=C1Nc2cc(NC(=O)c3c[nH]cc(-c4ccccc4F)c3=O)ccc2/C1=C/c1ccc[nH]1
- IC50 (A549 [1]): 500 nM
- IC50 (HepG2): 600 nM
- IC50 (Cytochrome P450 2C9): 40 nM
- IC50 (Cytochrome P450 2C19): 3.5 µM
- IC50 (Cytochrome P450 3A4): > 10 µM
- half-life [2]: 708 min
- clearance [3]: 9.41 mL/min/kg
- Vd [4]: 9.34 L/kg
- AUC (Rattus norvegicus): 3660 ng·h/mL
- inhibition in vivo at 2.5 mg/kg [5]: 56%
- inhibition in vivo at 2.5 mg/kg [6]: 38%
- Activity (Vero): Non-toxic
- concentration at 5 min [7]: 4790 ng/mL
- concentration at 24 h [8]: 10 ng/mL
- IC50 (A549 [9]): 3.2 µM
- IC50 (A549 [10]): 4.1 µM
- inhibition in vivo at 5 mg/kg [11]: 61%
